From US10906977B2, “Enhancing the therapeutic activity of immune checkpoint inhibitor” (Maine Medical Center Research Institute, priority 2016, dated 2021)

Columns and labels:
[1] = tested on: T-cell (Jurkat); test: T-cell migration on denatured collagen type-IV (transwell); assay type: cell-based, human; settings: P2 1.0 ug/ml; FIG. 34
Protocol: Membranes of transwell migration chambers were coated with denatured collagen type-IV to mimic the altered basement membrane in tumor vessels. Left). T-cell (Jurkat) migration in the presence or absence of the cryptic collagen peptide P2 (1.0 ug/ml) and/or Mab XL313 and non-specific control antibody (50 μg/ml). Right). T-cell (Jurkat) migration in the presence or absence of Raw macrophage concentrated conditioned medium (CM) and/or Mab XL313 and non-specific control antibody (50 μg/ml). Data bars represent mean cell migration+SE from triplicate wells.

[2] = tested on: LAG3; test: Checkpoint molecule expression in human T-cell lines stimulated with collagen peptides (Western blot); assay type: cell-based; settings: Jurkat and CCL120.1; FIG. 35
Protocol: In order to confirm the functional ability of the XL313 cryptic collagen peptide P2 to regulate expression of the immune suppressive checkpoint molecule LAG3, αvβ3 expressing human T-cell lines Jurkat and CCL120.1 were stimulated with the cryptic collagen peptide P2 or control collagen peptides P1 or PC. Whole cell lysates from were analyzed for expression of PD-L1 and beta actin (β-Actin).

## CQGPRGDKGEC [Mab P-2]
[1]
  effect on T-cell migration: inhibitory effects
[2]
  expression of LAG3 in human T-cells: induces expression of the immunosuppressive molecule LAG3
  levels of PD-L1 in stimulated T-cells as compared to controls: clear increase in the levels of PD-L1
